Test results: patent US20230131402A1, “SPIRO-LACTAM NMDA RECEPTOR MODULATORS AND USES THEREOF” (Aptinyx Inc., priority 2016, published 2023)
Like-named read-outs stand apart in the source and are kept apart here.

Key:
[1] = IV pharmacokinetics; format: in vivo, Sprague Dawley rats; details: Sprague Dawley, rat, in vivo, iv, 2 mg/kg, normal saline (compounds marked * in 1% NMP and 99% normal saline); for C0: read-out: C0; for Vd: read-out: Vss
Source text: The table below summarizes the results of the IV pharmacokinetics.

[2] = target: T1, NMDAR2B (Homo sapiens, UniProt Q13224); assay: [3H]MK-801 binding, NMDAR2B expressing HEK cell membranes; format: biochemical
T1 construct: expressed in transfected cells; host or cells: HEK cells (membrane extract)
T1 sequence (Q13224 27-1484, species assumed, other chains not shown): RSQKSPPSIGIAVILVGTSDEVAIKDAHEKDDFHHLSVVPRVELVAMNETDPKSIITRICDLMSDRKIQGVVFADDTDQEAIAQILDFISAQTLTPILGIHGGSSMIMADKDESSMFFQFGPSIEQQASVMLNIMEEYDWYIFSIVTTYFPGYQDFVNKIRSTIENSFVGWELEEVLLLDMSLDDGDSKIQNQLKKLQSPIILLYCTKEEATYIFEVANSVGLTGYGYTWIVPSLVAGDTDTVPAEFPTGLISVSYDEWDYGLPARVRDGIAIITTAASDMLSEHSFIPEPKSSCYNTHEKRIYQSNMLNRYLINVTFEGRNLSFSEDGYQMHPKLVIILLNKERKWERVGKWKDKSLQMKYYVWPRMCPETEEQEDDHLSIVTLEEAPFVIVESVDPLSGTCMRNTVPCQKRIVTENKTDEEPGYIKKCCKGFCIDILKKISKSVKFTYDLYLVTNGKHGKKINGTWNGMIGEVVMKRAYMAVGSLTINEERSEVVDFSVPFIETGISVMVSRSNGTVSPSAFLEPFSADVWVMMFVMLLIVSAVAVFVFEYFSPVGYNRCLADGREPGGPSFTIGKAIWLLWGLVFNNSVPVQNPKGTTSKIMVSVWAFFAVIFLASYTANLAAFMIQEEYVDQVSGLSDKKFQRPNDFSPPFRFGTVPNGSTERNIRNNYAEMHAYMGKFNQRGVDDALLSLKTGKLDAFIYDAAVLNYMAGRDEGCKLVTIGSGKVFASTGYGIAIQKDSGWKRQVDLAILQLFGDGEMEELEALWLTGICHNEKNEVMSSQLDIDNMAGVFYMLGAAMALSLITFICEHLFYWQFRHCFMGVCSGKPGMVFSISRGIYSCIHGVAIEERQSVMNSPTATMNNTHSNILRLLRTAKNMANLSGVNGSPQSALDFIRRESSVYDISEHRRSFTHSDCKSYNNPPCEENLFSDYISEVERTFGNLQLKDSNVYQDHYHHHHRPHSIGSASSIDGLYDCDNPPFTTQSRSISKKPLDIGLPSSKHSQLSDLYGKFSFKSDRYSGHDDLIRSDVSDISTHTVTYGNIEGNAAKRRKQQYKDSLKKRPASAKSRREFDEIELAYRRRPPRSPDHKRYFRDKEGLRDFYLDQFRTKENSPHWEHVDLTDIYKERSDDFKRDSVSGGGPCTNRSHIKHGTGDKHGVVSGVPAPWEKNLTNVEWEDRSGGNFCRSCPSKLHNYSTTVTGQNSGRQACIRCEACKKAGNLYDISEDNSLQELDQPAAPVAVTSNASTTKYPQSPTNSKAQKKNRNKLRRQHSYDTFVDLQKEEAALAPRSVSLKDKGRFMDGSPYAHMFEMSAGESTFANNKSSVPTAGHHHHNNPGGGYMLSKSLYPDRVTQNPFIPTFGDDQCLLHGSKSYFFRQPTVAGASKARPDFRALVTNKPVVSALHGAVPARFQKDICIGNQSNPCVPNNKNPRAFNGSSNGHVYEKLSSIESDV
Method: (§1) Assays were conducted as described by Moskal et al., “GLYX-13: a monoclonal antibody-derived peptide that acts as an N-methyl-D-aspartate receptor modulator,” Neuropharmacology, 49, 1077-87, 2005. These studies were designed to determine if the test compounds act to facilitate NMDAR activation in NMDAR2A, NMDAR2B, NMDAR2C or NMDAR2D expressing HEK cell membranes as measured by increases in [^3H]MK-801 binding.
(§2) In the assay, 300 μg of NMDAR expressing HEK cell membrane extract protein was preincubated for 15 minutes at 25° C. in the presence of saturating concentrations of glutamate (50 μM) and varying concentrations of test compound (1×10^−15M−1×10^−7M), or 1 mM glycine. Following the addition of 0.3 μCi of [^3H]MK-801 (22.5 Ci/mmol), reactions were again incubated for 15 minutes at 25° C. (nonequilibrium conditions). Bound and free [^3H]MK-801 were separated via rapid filtration using a Brandel apparatus.
(§3) In analyzing the data, the DPM (disintegrations per minute) of [^3H]MK-801 remaining on the filter were measured for each concentration of test compound or for 1 mM glycine. The DPM values for each concentration of a ligand (N=2) were averaged. The baseline value was determined from the best fit curve of the DPM values modeled using the GraphPad program and the log(agonist) vs. response(three parameters) algorithm was then subtracted from all points in the dataset. The % maximal [^3H]MK-801 binding was then calculated relative to that of 1 mM glycine: all baseline subtracted DPM values were divided by the average value for 1 mM glycine. The EC50 and % maximal activity were then obtained from the best fit curve of the % maximal [^3H]MK-801 binding data modelled using the GraphPad program and the log(agonist) vs. response(three parameters) algorithm.
(§4) The tables below summarize the results for the wild type NMDAR agonists NMDAR2A, NMDAR2B, NMDAR2C, and NMDAR2D, and whether the compound is not an agonist (−), is an agonist (+), or is a strong agonist (++), where column A is based on the % maximal [^3H]MK-801 binding relative to 1 mM glycine (−=0; <100%=+; and >100%=++); and column B is based on log EC50 values (0=−; ≥1×10^−9M (e.g., −8)=+; and <1×10^−9M (e.g., −10)=++).

[3] = Oral pharmacokinetics (plasma, brain, CSF); details: rat, 10 mg/kg, per os; for bioavailability: % F; for AUC(0-t): AUClast
Method: Plasma, brain, and CSF samples were analyzed at various time points over a 24 hour period.

[4] = target: T2, NMDAR2A (Homo sapiens, UniProt Q12879); assay: [3H]MK-801 binding, NMDAR2A expressing HEK cell membranes; format: biochemical; details: for Emax: read-out: NMDAR2A A: % maximal [3H]MK-801 binding relative to 1 mM glycine
T2 construct: expressed in transfected cells; host or cells: HEK cells (membrane extract)
T2 sequence (Q12879 23-1464, species assumed, other chains not shown): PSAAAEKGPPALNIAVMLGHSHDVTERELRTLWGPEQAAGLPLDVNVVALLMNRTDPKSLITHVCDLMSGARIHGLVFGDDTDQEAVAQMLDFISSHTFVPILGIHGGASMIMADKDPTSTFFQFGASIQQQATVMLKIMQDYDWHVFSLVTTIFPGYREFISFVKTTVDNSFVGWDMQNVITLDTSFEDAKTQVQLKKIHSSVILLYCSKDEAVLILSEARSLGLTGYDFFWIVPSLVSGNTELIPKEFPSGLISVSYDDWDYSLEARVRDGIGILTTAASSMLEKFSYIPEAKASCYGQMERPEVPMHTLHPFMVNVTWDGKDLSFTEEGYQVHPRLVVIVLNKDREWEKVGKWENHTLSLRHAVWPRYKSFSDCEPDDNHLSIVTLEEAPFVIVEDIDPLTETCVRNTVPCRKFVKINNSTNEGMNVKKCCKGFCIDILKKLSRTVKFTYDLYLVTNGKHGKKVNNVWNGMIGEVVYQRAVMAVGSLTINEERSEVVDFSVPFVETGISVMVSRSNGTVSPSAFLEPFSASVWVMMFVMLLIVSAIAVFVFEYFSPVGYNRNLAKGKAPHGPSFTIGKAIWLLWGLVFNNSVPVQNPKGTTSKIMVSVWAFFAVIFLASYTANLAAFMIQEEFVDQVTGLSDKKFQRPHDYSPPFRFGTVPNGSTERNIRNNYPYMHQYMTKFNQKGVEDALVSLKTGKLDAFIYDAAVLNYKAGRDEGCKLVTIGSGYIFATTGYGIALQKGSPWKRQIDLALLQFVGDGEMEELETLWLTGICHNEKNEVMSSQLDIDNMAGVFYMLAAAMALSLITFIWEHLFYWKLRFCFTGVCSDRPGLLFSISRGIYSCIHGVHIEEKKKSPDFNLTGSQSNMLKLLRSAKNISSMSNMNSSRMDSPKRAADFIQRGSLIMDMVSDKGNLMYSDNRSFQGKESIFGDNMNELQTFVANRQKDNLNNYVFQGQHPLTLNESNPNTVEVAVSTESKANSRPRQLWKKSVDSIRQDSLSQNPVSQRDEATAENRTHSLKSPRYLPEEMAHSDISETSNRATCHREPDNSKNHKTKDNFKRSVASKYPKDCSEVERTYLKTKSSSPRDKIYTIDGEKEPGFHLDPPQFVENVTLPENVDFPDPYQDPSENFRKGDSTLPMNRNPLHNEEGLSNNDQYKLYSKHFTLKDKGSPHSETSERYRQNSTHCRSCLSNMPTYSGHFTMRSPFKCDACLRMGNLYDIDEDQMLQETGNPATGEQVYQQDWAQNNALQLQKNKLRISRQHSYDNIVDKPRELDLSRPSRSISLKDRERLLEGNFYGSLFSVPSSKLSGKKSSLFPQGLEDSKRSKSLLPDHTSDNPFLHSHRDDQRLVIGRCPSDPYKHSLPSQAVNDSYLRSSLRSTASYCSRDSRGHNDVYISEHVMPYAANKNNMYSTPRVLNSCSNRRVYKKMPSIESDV
Method: as §1, §2, §3, §4

[5] = tested on: rats' response (reduced floating time); assay: Porsolt forced swim test; format: in vivo, Sprague Dawley rats
Method: A non-clinical in vivo pharmacology study (Porsolt assay) was performed to measure antidepressant-like effects. A negative control (0.5% sodium carboxymethyl cellulose in 0.9% sterile saline vehicle) and a positive control (fluoxetine) are shown for comparison against test compound. The study allowed for the evaluation of the effects of each compound on the Porsolt forced swim test as assessed by the rats' response (reduced floating time) during a 5-minute swimming test.
Male 2-3 month old Sprague Dawley rats were used (Harlan, Indianapolis, Ind.). Rats were housed in Lucite cages with aspen wood chip bedding, maintained on a 12:12 light:dark cycle (lights on at 5 AM), and given ad libitum access to Purina lab chow (USA) and tap water throughout the study.
The Porsolt forced swim test adapted for use in rats was performed as described by Burgdorf et al., (The long-lasting antidepressant effects of rapastinel (GLYX-13) are associated with a metaplasticity process in the medial prefrontal cortex and hippocampus. Neuroscience 308:202-211, 2015). Animals were placed in a 46 cm tall×20 cm in diameter clear glass tube filled to 30 cm with tap water (23±1° C.) for 15 min on the first day (habituation) and 5 min on the subsequent test day. Positive control fluoxetine was dosed 3 times (24 h, 5 h and 1 h) prior to testing. Animals were tested 1 h post-dosing with the test compounds or vehicle. Animals received a 15 min habituation session 1 day before the 5 min test. A subset of compounds tested at 1 h post-dosing were retested at 1 wk post-dosing in the same sets of animals. Water was changed after every other animal. Animals were videotaped, and floating time as defined as the minimal amount of effort required to keep the animals head above water was scored offline by a blinded experimenter with high inter-rater reliability (Pearson's r>0.9).
Each compound tested at dose level shown. Significance vs. vehicle group for each experiment is marked. […] A compound marked “No” was not statistically significant from vehicle. Data was averaged for test compound and vehicle groups (N approximately 8 per group) and the percent reduction in floating for group treated with test compound relative to group treated with vehicle is shown.

[6] = target: T3, NMDAR2D (Homo sapiens, UniProt O15399+Q05586); assay: [3H]MK-801 binding, NMDAR2D expressing HEK cell membranes; format: biochemical; details: 50 μM glutamate; for Emax: read-out: NMDAR2D A: % maximal [3H]MK-801 binding relative to 1 mM glycine; for EC50: read-out: NMDAR2D B: log EC50 (converted)
T3 construct: expressed in transfected cells; host or cells: HEK cells (membrane extract)
T3 sequence (O15399 28-1336, species assumed, other chains not shown): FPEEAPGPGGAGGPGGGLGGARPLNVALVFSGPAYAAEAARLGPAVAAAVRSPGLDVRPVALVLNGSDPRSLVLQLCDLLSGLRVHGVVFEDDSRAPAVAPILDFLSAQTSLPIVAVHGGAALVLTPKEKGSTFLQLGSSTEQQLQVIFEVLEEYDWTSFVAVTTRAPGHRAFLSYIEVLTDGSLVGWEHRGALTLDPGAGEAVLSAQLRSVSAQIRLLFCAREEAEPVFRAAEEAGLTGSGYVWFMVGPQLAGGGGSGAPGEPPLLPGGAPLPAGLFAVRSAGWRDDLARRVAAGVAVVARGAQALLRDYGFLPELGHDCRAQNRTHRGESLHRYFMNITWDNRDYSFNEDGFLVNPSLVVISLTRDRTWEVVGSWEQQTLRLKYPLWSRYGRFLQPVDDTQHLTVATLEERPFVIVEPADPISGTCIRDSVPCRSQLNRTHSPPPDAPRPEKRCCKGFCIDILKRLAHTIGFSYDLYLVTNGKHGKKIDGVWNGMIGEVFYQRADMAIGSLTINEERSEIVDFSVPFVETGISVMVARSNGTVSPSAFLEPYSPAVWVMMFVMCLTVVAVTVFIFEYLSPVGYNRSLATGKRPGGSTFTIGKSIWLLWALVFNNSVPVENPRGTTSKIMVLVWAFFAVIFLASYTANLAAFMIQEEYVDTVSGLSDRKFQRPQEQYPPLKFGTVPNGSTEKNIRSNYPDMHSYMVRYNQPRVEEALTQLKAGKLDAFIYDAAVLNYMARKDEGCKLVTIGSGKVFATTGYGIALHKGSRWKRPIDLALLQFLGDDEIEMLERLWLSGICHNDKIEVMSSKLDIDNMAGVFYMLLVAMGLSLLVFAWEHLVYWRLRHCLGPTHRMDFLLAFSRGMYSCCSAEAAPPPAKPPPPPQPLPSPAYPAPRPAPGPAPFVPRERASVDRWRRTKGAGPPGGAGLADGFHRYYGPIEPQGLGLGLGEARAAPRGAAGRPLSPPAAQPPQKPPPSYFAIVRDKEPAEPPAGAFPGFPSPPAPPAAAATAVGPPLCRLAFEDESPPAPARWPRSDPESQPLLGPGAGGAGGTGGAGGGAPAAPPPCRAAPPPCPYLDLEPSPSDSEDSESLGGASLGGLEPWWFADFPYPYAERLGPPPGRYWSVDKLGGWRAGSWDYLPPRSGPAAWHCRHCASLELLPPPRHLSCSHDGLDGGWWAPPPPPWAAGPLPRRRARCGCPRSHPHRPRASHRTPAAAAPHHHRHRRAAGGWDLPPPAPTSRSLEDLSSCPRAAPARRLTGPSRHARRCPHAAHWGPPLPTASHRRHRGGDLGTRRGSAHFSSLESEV
Method: as §1, §2, §3, §4

[7] = 50 μM glutamate, read-out: NMDAR2B B: log EC50 (converted)
[8] = Sprague Dawley, plasma, po, normal saline (compounds marked * in 1% NMP and 99% normal saline)
[9] = Sprague Dawley, plasma, po, Tmax, normal saline (compounds marked * in 1% NMP and 99% normal saline)
[10] = 50 μM glutamate, read-out: NMDAR2A B: log EC50 (converted)
[11] = 1 wk post-dose, 0.1 mg/kg; Yes = p<=0.05 from vehicle
[12] = 1 h post-dose, 0.1 mg/kg; Yes = p<=0.05 from vehicle
[13] = normal saline (compounds marked * in 1% NMP and 99% normal saline)
[14] = 1 wk post-dose, 0.1 mg/kg, relative to vehicle group; 0.1 mg/kg
[15] = 1 h post-dose, 0.1 mg/kg, relative to vehicle group; 0.1 mg/kg

SMILES	AUC(0-t) [1] [ng·h/mL]	clearance [1] [mL/min/kg]	half-life [1] [h]	C0 [1] [ng/mL]	Vd [1] [L/kg]	NMDAR2B A: % maximal [3H]MK-801 binding relative to 1 mM glycine ([2]; 50 μM glutamate)	EC50 [2, 7] [nM]	bioavailability ([3]; Sprague Dawley, plasma, po) [%]	AUC(0-t) [3, 8] [ng·h/mL]	Cmax [3, 8] [ng/mL]	Tmax [3, 9] [h]	CSF Cmax [3] [ng/mL]	Brain Cmax [3] [ng/mL]	NMDAR2A A: % maximal [3H]MK-801 binding relative to 1 mM glycine ([4]; 50 μM glutamate)	EC50 [4, 10] [nM]	Significance vs. vehicle [5, 11]	Significance vs. vehicle [5, 12]	Emax [6] [%]	EC50 [6] [nM]	further results
CC(=O)N1CCN(Cc2ccccc2)C2(CCNC2=O)C1 (stereo not drawn) [ES-319]	1790	18.2	4.65	2770	1.74	+ (<100%=+)	< 1	72	6470	4760	0.33	520	758	+ (<100%=+)	< 1	Yes	Yes	–	–	% reduction in float time ([5]; 1 wk post-dose, 0.1 mg/kg, relative to vehicle group): 60.5%; % reduction in float time ([5]; 1 h post-dose, 0.1 mg/kg, relative to vehicle group): 76.3%
O=C1NCC12CNCCN2Cc1ccccc1 (single isomer, unassigned) [ED-1, 5-Benzyl-2,5,8-Triazaspiro[3.5]Nonan-1-One]	1020	32.1	0.79	1180	1.88	− (−=0)	–	–	–	2800	–	–	–	–	–	–	–	< 100	< 1	% F [3]: 138%; AUClast [3, 13]: 7053.49 ng·h/mL; Tmax [3, 13]: 0.67 h; Emax ([4]; 50 μM glutamate): 0%
C[C@@H](O)[C@H](N)C(=O)N1CCNC2(CNC2=O)C1 (single isomer, unassigned) [EK-1, 8-(L-Threonyl)-2,5,8-Triazaspiro[3.5]Nonan-1-One]	2260	15	0.8	6460	0.4	− (−=0)	–	51	5740	1620	1.67	7	0	+ (<100%=+)	< 1	–	–	< 100	< 1	–
C[C@@H](O)[C@H](N)C(=O)N1CCNC2(CCNC2=O)C1 (stereo partly drawn) [ES-336]	4770	6.84	13.7	13700	0.73	+ (<100%=+)	< 1	44	9820	2690	1	143	32	+ (<100%=+)	< 1	Yes	Yes	–	–	% reduction in float time [5, 14]: 86.5%; % reduction in float time [5, 15]: 81.6%
O=C1NCC12CN(Cc1ccccc1)CCN2Cc1ccccc1 (single isomer, unassigned) [EA-1, 5,8-Dibenzyl-2,5,8-Triazaspiro[3.5]Nonan-1-One]	–	–	–	–	–	+ (<100%=+)	< 1	–	–	–	–	–	–	+ (<100%=+)	< 1	–	–	0	–	–
C[C@@H](O)[C@H](N)C(=O)N1CCN(C(=O)OC(C)(C)C)CC12CNC2=O (single isomer, unassigned) [EC-1, Tert-Butyl 5-(L-Threonyl)-1-Oxo-2,5,8-Triazaspiro[3.5]Nonane Carboxylate]	–	–	–	–	–	–	–	–	–	–	–	–	–	–	< 1	–	–	< 100	< 1	Emax ([2]; 50 μM glutamate, read-out: NMDAR2B A: % maximal [3H]MK-801 binding relative to 1 mM glycine): 0%; Emax ([4]; 50 μM glutamate): < 100%
CN1CCN(Cc2ccccc2)C2(CCNC2=O)C1 (stereo not drawn) [ES-316]	1110	30.6	2.3	2090	1.75	+ (<100%=+)	–	55	3030	2770	0.25	430.2	1583	+ (<100%=+)	–	Yes	Yes	–	–	EC50 ([2]; read-out: NMDAR2B B: log EC50 (converted), 50 μM glutamate): < 1 nM; EC50 ([4]; read-out: NMDAR2A B: log EC50 (converted), 50 μM glutamate): < 1 nM; % reduction in float time [5, 14]: 42.4%; % reduction in float time [5, 15]: 49.4%
